pEC50: −log10 of the molar value. Entries after “also recorded” stand apart in the source; their conditions may differ.
Key:
[1] = system: VCaP (AR-V7 positive) cells; test: Cell growth inhibition in VCaP cells (Cell Titer-Glo, 96 hours); format: cell-based; settings: for pEC50: Homo sapiens, VCaP; for inhibition of cell growth and viability / effect on growth and number of viable VCaP cells (in words): 96 hours; for effect on growth and number of viable VCaP cells (in words): single agent, 3 to 10,000 nM
Method: (§1) VCaP cells were grown under standard cell culture conditions in 10% fetal bovine serum (FBS). LNCaP cells were grown in charcoal stripped FBS supplemented with 10 nM DHT in a 3-dimensional cell spheroid culture system, which increases androgen-dependent growth. […] This concentration of enzalutamide (3000 nM) was chosen for the combination study because it matches the clinical steady state trough level of enzalutamide at the recommended dose of 160 mg QD after accounting for differences in protein binding between cell culture media and human plasma. Cell growth and number was measured by quantification of the total cellular ATP content (Cell Titer-Glo® Luminescent Cell Viability Assay) at the time of compound addition (T=0), and after 96 hours of treatment.
(§2) Referring again to FIG. 1, the Y-axis is normalized CellTiter-Glo values where the bottom of the assay (no ATP)=0% and the DMSO-treated cells=100% at the end of the assay. T=0 represents the CellTiter-Glo signal recorded at the time of compound addition. […] One representative of three independent experiments is shown.

[2] = Protein binding difference between cell culture media and human plasma; format: in vitro ADME; settings: cell culture media vs human plasma
[3] = system: LNCaP (AR-V7 negative) cells; test: Cell growth inhibition in LNCaP cells, 3-dimensional spheroid culture (Cell Titer-Glo, 96 hours); format: cell-based
Method: as §1, §2

[4] = dog, in vivo
Method: The Phase 1 study will be a 3+3 dose escalation to evaluate the safety, tolerability, PK, and maximum tolerated dose of compound (I-1) after multiple dosing in patients with CRPC. The initial dose will be at 0.6 mg, and intensive safety, PK and PD monitoring will occur prior to each dose escalation. […] Approximately six dose levels will be explored. The PD assessment will be a NanoString assay that measures levels of HEXIM1 and CCR2 RNA in peripheral blood cells.

[5] = patients, enzalutamide; cited from earlier work
[6] = compound (I-1) alone at its projected Cmax
[7] = compound (I-1) alone at its projected Cmin
[8] = compound (I-1) at its projected Cmax with 3,000 nM enzalutamide
[9] = compound (I-1) at its projected Cmin with 3,000 nM enzalutamide

**Q.** With `Cc1noc(C)c1-c1cc(C(O)(c2ccccn2)c2ccccn2)c2nc(C3CC3)[nH]c2c1` [compound (I-1), (2-cyclopropyl-6-(3,5-dimethylisoxazol-4-yl)-1H-benzo[d]imidazol-4-yl)di(pyridin-2-yl)methanol] as the compound, how does the pEC50 ([1]; compound (I-1) alone) read?
**A.** 6.89

**Q.** What about the pEC50 ([1]; in the presence of 3,000 nM enzalutamide) of the same compound?
**A.** 7.12

**Q.** What about the “inhibition of cell growth and viability” value [1, 6] of the same compound?
**A.** 40%

**Q.** What about the “inhibition of cell growth and viability” value [1, 7] of the same compound?
**A.** 0%

**Q.** And the “inhibition of cell growth and viability” value [1, 8]?
**A.** 65%

**Q.** And the “inhibition of cell growth and viability” value [1, 9]?
**A.** 25%

**Q.** What about the “effect on growth and number of viable VCaP cells (in words)” value [1] of the same compound?
**A.** potently reduced the growth of VCaP cells; also recorded: decreased the number of viable cells to below that recorded at the beginning of the assay (T=0)

**Q.** And the “difference in protein binding between cell culture media and human plasma” value [2]?
**A.** 5.7 ×

**Q.** What about the “inhibition of cell growth and viability” value [3, 6] of the same compound?
**A.** 45%

**Q.** What about the “inhibition of cell growth and viability” value [3, 7] of the same compound?
**A.** 20%

**Q.** What about the “inhibition of cell growth and viability” value [3, 8] of the same compound?
**A.** 65%

**Q.** What about the “inhibition of cell growth and viability” value [3, 9] of the same compound?
**A.** 45%

**Q.** What about the dose/toxicity relationship [4] of the same compound?
**A.** steep dose/toxicity relationship

**Q.** For `CNC(=O)c1ccc(N2C(=S)N(c3ccc(C#N)c(C(F)(F)F)c3)C(=O)C2(C)C)cc1F` [enzalutamide], which “effect on growth and number of viable VCaP cells (in words)” value [1] is on record?
**A.** reduced the growth of VCaP cells but the magnitude of growth suppression was significantly less than that observed for compound (I-1)

**Q.** What about the “OS HR” value [5] of the same compound?
**A.** 0.69

**Q.** And the “increase in OS” value [5]?
**A.** 3.4 month
